Measurements taken from paper PMC4121215, “Cytotoxic Constituents from the Rhizomes of Curcuma zedoaria” (The Scientific World Journal, 2014).
In brackets after ≈: the same amount, converted by molar mass.

Columns and labels:
[1] = system: PC-3 (prostate cancer); experiment: MTT cytotoxicity assay, PC-3; type: cell-based; conditions: for IC50: Homo sapiens, MTT, 72 h, mean ± SD of three replicates; for IC50 / SI (selectivity index) PC-3: isolated compounds; for antiproliferative/cytotoxic activity against PC-3 (in words): MTT assay; for SI (selectivity index) PC-3: IC50 HUVEC / IC50 PC-3
Description: (§1) The human cell lines MCF-7 (breast cancer), Ca Ski (cervical cancer), and HT-29 (colon cancer) were cultured as monolayer in RPMI 1640 growth media. HUVEC (human umbilical vein endothelial cells) and PC-3 (prostate cancer) cells were cultured in DMEM. All cells were purchased from the American Tissue Culture Collection (ATCC, USA) except for human umbilical vein endothelial cells (HUVEC) which were obtained from ScienCell Research Laboratories (Carlsbad, CA). All the media were supplemented with 10% v/v foetal bovine serum (FBS), 100 μg/mL penicillin/streptomycin, and 50 μg/mL amphotericin B. The cells were cultured in a 5% CO2 incubator at 37°C.
(§2) Cell viability was investigated using 3-(4, 5-dimethylthiazol-2-yl)-2, 5-diphenyltetrazolium bromide (MTT) assay. Cells were detached from the […] tissue culture flask when it achieved 80% confluency. The detached cells were pellet by centrifugation (1,000 rpm; 5 minutes). Cells (3.0 × 10^4 cells/mL) were seeded onto a 96-well microtiter plate (Nunc). The cells were incubated at 37°C CO2 incubator for 24 h to give adherent cells. The test compounds (1–100 μg/mL) were added onto the 96-well microtiter plate containing adherent cells. The untreated cells were incubated in 10% media containing 0.5% DMSO (without addition of any test compounds/extracts). This mixture was regarded as the negative control whereas doxorubicin as the positive control. The plates were incubated for 72 h at 37°C in a 5% CO2 incubator. After 72 h, the media were removed and 100 μL of fresh medium and 20 μL of MTT (Sigma, filter sterile, 5 mg/mL) were added to each well and further incubated for 4 hours (37°C) after which the media were substituted with 150 μL DMSO. The 96-well microtiter plates were then agitated at room temperature onto an incubator shaker to dissolve the formazan crystals. The absorbance (A) of the content of the plates was measured at 540 nm using a microplate reader. The percentage of inhibition of each test sample was calculated according to the following formula: Percentage of inhibition (%) = (A control − A sample)/A control × 100%. The average of three replicates was then obtained. The IC50 for each extract was extrapolated from the graphs of the percentage inhibition versus concentration of test agents. Cytotoxicity of each test agent is expressed as IC50 value. The IC50 value is the concentration of test agents that cause 50% inhibition or cell death, averaged from the three experiments. The selectivity index (SI) was also calculated as described by using the ratio between IC50 of the extract or compounds on normal cell lines (HUVEC) and IC50 of the tested extract or compounds on cancerous cell lines. Selectivity index (SI) values equal or greater than three were considered to have a high selectivity towards cancerous cells. An SI value denotes the selectivity of the sample to the tested cell lines.

[2] = system: HT-29 (colon cancer); experiment: MTT cytotoxicity assay, HT-29; type: cell-based; conditions: for IC50: Homo sapiens, HT-29, MTT, 72 h, mean ± SD of three replicates; for IC50 / SI (selectivity index) HT-29: isolated compounds; for antiproliferative/cytotoxic activity against HT-29 (in words): MTT assay; for SI (selectivity index) HT-29: IC50 HUVEC / IC50 HT-29
Description: as §1, §2

[3] = system: Ca Ski (cervical cancer); experiment: cells; type: cell-based; conditions: for IC50: Homo sapiens, Ca-Ski, MTT, 72 h, mean ± SD of three replicates; for IC50 / SI (selectivity index) Ca Ski: isolated compounds; for SI (selectivity index) Ca Ski: IC50 HUVEC / IC50 Ca Ski
Description: as §1, §2

[4] = system: MCF-7 (breast cancer); experiment: cells; type: cell-based; conditions: for IC50: Homo sapiens, MCF7, MTT, 72 h, mean ± SD of three replicates; for IC50 / SI (selectivity index) MCF-7: isolated compounds; for SI (selectivity index) MCF-7: IC50 HUVEC / IC50 MCF-7
Description: as §1, §2

[5] = system: HUVEC (human umbilical vein endothelial cells); experiment: cells; type: cell-based; conditions: for IC50: Homo sapiens, HUVEC, isolated compounds, MTT, 72 h, normal cells
Description: as §1, §2

[6] = system: Ca Ski; parameters: method as in PMID 21629182; conditions: zerumin A isolated from Curcuma mangga; cited from earlier work
[7] = system: MCF-7; parameters: method as in PMID 21629182; conditions: zerumin A isolated from Curcuma mangga; cited from earlier work

Molecule	IC50 [1]	antiproliferative/cytotoxic activity against PC-3 (in words) [1]	SI (selectivity index) PC-3 [1]	IC50 [2]	antiproliferative/cytotoxic activity against HT-29 (in words) [2]	SI (selectivity index) HT-29 [2]	IC50 [3]	SI (selectivity index) Ca Ski [3]	IC50 [4]	SI (selectivity index) MCF-7 [4]	IC50 [5]	IC50 Ca Ski [6]	IC50 MCF-7 [7]	antiproliferative/cytotoxic activity against Ca Ski (in words) [3]	antiproliferative/cytotoxic activity against MCF-7 (in words) [4]	toxicity towards normal cells HUVEC (in words) [5]
CC(C)=C1CC(=O)[C@@H](C)CC/C=C(\C)CC1=O [Compound 2, dehydrocurdione]	19.1 ± 2.8 µg/mL (≈ 81.5 µM)	moderate inhibitory activity	1.3	22.7 ± 2.4 µg/mL (≈ 96.9 µM)	moderate inhibitory activity	1.1	21.7 ± 1.1 µg/mL (≈ 92.6 µM)	1.1	33 ± 1.1 µg/mL (≈ 141 µM)	0.7	24 ± 2.1 µg/mL (≈ 102 µM)	–	–	–	–	–
C=C1CC[C@H]2C(C)(C)CCC[C@]2(C)[C@H]1CC=C(C=O)CC(=O)O (stereo in doubt) [Compound 16, zerumin A]	21.9 ± 1.6 µg/mL (≈ 68.8 µM)	moderate inhibitory activity	1.2	17.4 ± 2 µg/mL (≈ 54.6 µM)	moderate inhibitory activity	1.5	–	–	22.3 ± 1.1 µg/mL (≈ 70 µM)	1.2	25.8 ± 1.9 µg/mL (≈ 81 µM)	8.7 ± 0.29 µg/mL (≈ 27.3 µM)	14.2 ± 0.06 µg/mL (≈ 44.6 µM)	–	–	–
Hexane	–	–	–	–	–	–	–	–	–	–	–	–	–	high inhibitory activity	high inhibitory activity	low toxicity
CC1=CC2C(=C(C)C)C(=O)C=C(C)C2CC1 (stereo not drawn) [Compound 4, comosone II]	–	–	–	–	–	–	76 ± 1.2 µg/mL (≈ 351 µM)	–	> 100 µg/mL	–	–	–	–	–	–	–
C=C(C)[C@@H]1CC[C@H](C)[C@]12CC(=C(C)C)C(=O)O2 [Compound 17, curcumanolide A]	18.8 ± 2.4 µg/mL (≈ 80.2 µM)	moderate inhibitory activity	1.2	21.3 ± 3.2 µg/mL (≈ 90.9 µM)	moderate inhibitory activity	1.0	–	–	29.8 ± 3.1 µg/mL (≈ 127 µM)	0.7	21.7 ± 7 µg/mL (≈ 92.6 µM)	–	–	–	–	–
C/C1=C\Cc2c(C)coc2C/C(C)=C/CC1 [Compound 11, furanodiene]	39.5 ± 4.5 µg/mL (≈ 183 µM)	–	1.0	47.2 ± 4.4 µg/mL (≈ 218 µM)	–	0.9	–	–	36.5 ± 2.6 µg/mL (≈ 169 µM)	1.1	40.9 ± 2.6 µg/mL (≈ 189 µM)	–	–	–	–	–
C=C(C)C(=O)C[C@]12OC(=O)C=C(C)[C@@H]1CC[C@@H]2C [Compound 18, curcuzedoalide]	62.1 ± 8.1 µg/mL (≈ 250 µM)	–	0.7	58.2 ± 3.5 µg/mL (≈ 234 µM)	–	0.8	–	–	49.8 ± 3.6 µg/mL (≈ 201 µM)	0.9	45.3 ± 7.8 µg/mL (≈ 182 µM)	–	–	–	–	–
CC(C)=C1C/C=C(\C)CC/C=C(\C)CC1=O [Compound 7, germacrone]	55.2 ± 4.9 µg/mL (≈ 253 µM)	–	1.3	42.9 ± 4.1 µg/mL (≈ 196 µM)	–	1.7	39.3 ± 1.2 µg/mL (≈ 180 µM)	1.9	59.1 ± 2.9 µg/mL (≈ 271 µM)	1.2	73.7 ± 0.3 µg/mL (≈ 338 µM)	–	–	–	–	–
Cc1cc2oc(=O)c(C)c-2cc2c1CC[C@@H]2C [Compound 19, gweicurculactone]	38.3 ± 2.2 µg/mL (≈ 168 µM)	–	1.9	35.7 ± 5.8 µg/mL (≈ 156 µM)	–	2.0	–	–	31.2 ± 3.2 µg/mL (≈ 137 µM)	2.3	71.7 ± 6.1 µg/mL (≈ 314 µM)	–	–	–	–	–
